PubChem BioAssay AID1918937 (Molecular Pharmacology Branch, DTP, NCI, 2023)
Values joined by “and” are separate entries in the source; they are usually repeats but may differ in a detail not shown here. Equal values may be shown once.
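Note: spheroids exposed to agents for seven days; percent of DMSO vehicle control luminescence viability.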

These compounds were tested on 521955-158-R2-J5-PDC complex spheroid viability (assay: Anticancer human tumor 521955-158-R2-J5-PDC patient-derived pancreatic carcinoma cell line growth inhibition). Conditions: compound 0.000316 µM; stronger effect = lower value.
Description: Multicellular complex tumor spheroid response to LSD1 Inhibitor Iadademstat in combination with a variety of drugs and investigational agents in selected tumor cell lines
The current study was undertaken to assess response to LSD1 inhibitors in combination with standard-of-care drugs and investigational agents in solid tumor complex spheroid models as well as in the K-562 leukemia. Complex spheroids include a stromal component modeled by human endothelial cells (HUVEC) and fibroblasts modeled by human mesenchymal stem cells (MSCs). The concentration ranges selected for each drug and investigational agent were based upon clinically achievable concentrations if the clinical Cmax of the agent was known.
Compounds. The drugs and investigational agents used in this study are listed on Table 1. All of the agents used, including staurosporine (NSC755774) and gemcitabine (NSC613327), were obtained from the Developmental Therapeutics Program, NCI. FDA-approved anticancer drugs are available from the NCI at http://dtp.nci.nih.gov/branches/dscb/oncology_drugset_explanation.html. Drugs and investigational agents were >95% pure by proton nuclear magnetic resonance (NMR) and liquid chromatography/mass spectrometry (LC/MS). Stock solutions were prepared at 400x in DMSO, stored at -70 degrees C, and diluted in fresh medium prior to their use. The final concentration of DMSO in cell culture wells never exceeded 0.25% (v/v). The FDA-approved anticancer drug set is available from the Developmental Therapeutics Program at https://dtp.cancer.gov/organization/dscb/obtaining/available_plates.htm. All drugs and investigational agents were tested over a range starting from a high concentration at or near the clinical Cmax and decreasing in half-log increments. If the clinical Cmax for an agent had not been determined, the highest concentration tested was 10 microM.
Cell Lines. The patient-derived cancer cell (PDC) lines: 292921-168-R-J2-PDC, K24384-001-R-PDC, and 521955-158-R2-J5-PDC pancreatic carcinomas, 556581-035-R-J1 ovarian carcinoma, 324938-238-R-J1-PDC, 855422-203-R-J1-PDC and 883617-216-R-J1-PDC urothelial bladder carcinomas, 743489-274-T-PDC renal cell carcinoma, 138582-R-J1 Merkel cell tumor, K60290-347-R-J1 and K57222-313-R-J1-PDC glioblastomas, 653999-131-R-J2-PDC, LG0703-F948-PDC, and 349418-098-R-PDC non-small cell lung carcinomas, 885512-296-R-J2-PDC, 171881-019-R-J1-PDC breast carcinomas and 186277-243-T-J2-PDC and 233499-124-R-J2-PDC colon carcinomas were obtained from the NCI Patient-Derived Models Repository (PDMR, https://pdmr.cancer.gov). The established cell lines NCI/ADR-RES (RRID:CVCL_14520 and OVCAR-5 (RRID:CVCL_1628) ovarian carcinomas, 786-O (RRID:CVCL_1051) and A498 (RRID:CVCL_A498) renal cell carcinoma, NCI-H211 (ATCC, cat. CRL-5824; RRID:CVCL_1529), NCI-H196 (ATCC, cat. CRL-5823, RRID:CVCL_1509), SW 1271 (ATCC, cat. CRL-2177, RRID:CVCL_1716) and NCI-H1876 (ATCC, cat. CRL-5902, RRID:CVCL_1503) small cell lung carcinomas, MDA-MB-231 (RRID:CVCL_0062) and MDA-MB-468 (RRID:CVCL_0419)breast carcinomas (10-12). Pooled donor human umbilical vein endothelial cells (HUVEC, Lonza, cat. CC-2519) and human mesenchymal stem cells (hMSC, Lonza, cat. PT-2501) were purchased from Lonza (Walkersville, MD).
Cell Culture. All cells were maintained in an incubator at 37 degrees C and 5% CO2 with 95% humidity. The PDC lines were cultured according to standard operating procedures established by the NCI PDMR (https://pdmr.cancer.gov). Briefly all PDCs were thawed and cultured in Matrigel-coated flasks prepared with a working solution of 1X Ham's F-12 nutrient mix, without supplementation (Invitrogen, Waltham, MA, cat. 11765054), 100 U/mL penicillin-streptomycin (Invitrogen, cat. 15140122), and 2.5% Matrigel (Corning Inc., Corning, NY, cat. 354248) for the first three passages. […]
In the case of `CC(C)CC(NC(=O)C(Cc1ccccc1)NC(=O)c1cnccn1)B(O)O` (configuration not stated), the viability, T/C is reported as 79.9% and 91.8%.
In the case of `CC(C)CC(NC(=O)CNC(=O)c1cc(Cl)ccc1Cl)B1OC(=O)CC(CC(=O)O)(C(=O)O)O1` (configuration not stated), the viability, T/C is reported as 107% and 105%.
With `CC[C@@]1(O)C(=O)OCc2c1cc1n(c2=O)Cc2cc3c(CN(C)C)c(O)ccc3nc2-1` the viability, T/C was 108% and 106%.
`Cn1ncnc1C1c2n[nH]c(=O)c3cc(F)cc(c23)NC1c1ccc(F)cc1` (configuration not stated) was tested, and the viability, T/C was 102% and 101%.

Same assay, conditions: compound 0.000949 µM; stronger effect = lower value
With `CCc1c2c(nc3ccc(O)cc13)-c1cc3c(c(=O)n1C2)COC(=O)[C@]3(O)CC` the viability, T/C was 4.87% and 6%.
`Nc1ccn(C2OC(CO)C(O)C2(F)F)c(=O)n1` (configuration not stated) was tested, and the viability, T/C was 106% and 95.4%.
For `Nc1ncn(C2CC(O)C(CO)S2)c(=O)n1` (configuration not stated), the viability, T/C was 103% and 99.3%.

Same assay, conditions: compound 0.001 µM; stronger effect = lower value
`CC(C)CC(NC(=O)C(Cc1ccccc1)NC(=O)c1cnccn1)B(O)O` (configuration not stated) was tested, and the viability, T/C was 0.42% and 0.86%.
Compound `CC(C)CC(NC(=O)CNC(=O)c1cc(Cl)ccc1Cl)B1OC(=O)CC(CC(=O)O)(C(=O)O)O1` (configuration not stated) has a viability, T/C of 106%.
`CC[C@@]1(O)C(=O)OCc2c1cc1n(c2=O)Cc2cc3c(CN(C)C)c(O)ccc3nc2-1` was tested, and the viability, T/C was 109% and 103%.
`Cn1ncnc1C1c2n[nH]c(=O)c3cc(F)cc(c23)NC1c1ccc(F)cc1` (configuration not stated) was tested, and the viability, T/C was 97.6% and 112%.

Same assay, conditions: compound 0.003 µM; stronger effect = lower value
`CCc1c2c(nc3ccc(O)cc13)-c1cc3c(c(=O)n1C2)COC(=O)[C@]3(O)CC` was tested, and the viability, T/C was 3.58% and 4.94%.
In the case of `Nc1ccn(C2OC(CO)C(O)C2(F)F)c(=O)n1` (configuration not stated), the viability, T/C is reported as 112% and 89%.
With `Nc1ncn(C2CC(O)C(CO)S2)c(=O)n1` (configuration not stated) the viability, T/C was 105% and 110%.

Same assay, conditions: compound 0.00316 µM; stronger effect = lower value
`CC(C)CC(NC(=O)C(Cc1ccccc1)NC(=O)c1cnccn1)B(O)O` (configuration not stated) was tested, and the viability, T/C was 0.29% and 0.43%.
`CC(C)CC(NC(=O)CNC(=O)c1cc(Cl)ccc1Cl)B1OC(=O)CC(CC(=O)O)(C(=O)O)O1` (configuration not stated) was tested, and the viability, T/C was 82.2% and 97.3%.
In the case of `CC1COCCN1c1cc(-c2ccnn2C)c2ccnc(-c3ccn[nH]3)c2n1` (configuration not stated), the viability, T/C is reported as 10.8% and 14.6%.
`CC[C@@]1(O)C(=O)OCc2c1cc1n(c2=O)Cc2cc3c(CN(C)C)c(O)ccc3nc2-1` was tested, and the viability, T/C was 77.4% and 85.3%.
`COc1cc(Nc2ncc3c(n2)-c2ccc(Cl)cc2C(c2c(F)cccc2OC)=NC3)ccc1C(=O)O` was tested, and the viability, T/C was 46.9% and 75.9%.
`Cn1ncnc1C1c2n[nH]c(=O)c3cc(F)cc(c23)NC1c1ccc(F)cc1` (configuration not stated) was tested, and the viability, T/C was 95.6% and 91.6%.
`Nc1ncn(C2CC(O)C(CO)O2)c(=O)n1` (configuration not stated) was tested, and the viability, T/C was 99.5% and 107%.
For `O=C(C=Cn1cnc(-c2cc(C(F)(F)F)cc(C(F)(F)F)c2)n1)NNc1cnccn1`, the viability, T/C was 44% and 57%.

Same assay, conditions: compound 0.00949 µM; stronger effect = lower value
For `CCN(c1cc(-c2ccc(CN3CCOCC3)cc2)cc(C(=O)NCc2c(C)cc(C)[nH]c2=O)c1C)C1CCOCC1`, the viability, T/C was 102% and 106%.
For `CCc1c2c(nc3ccc(O)cc13)-c1cc3c(c(=O)n1C2)COC(=O)[C@]3(O)CC`, the viability, T/C was 1.12% and 1.08%.
With `COc1cc(C2c3cc4c(cc3C(OC3OC5COC(C)OC5C(O)C3O)C3COC(=O)C23)OCO4)cc(OC)c1O` (configuration not stated) the viability, T/C was 98.3% and 103%.
With `NS(=O)(=O)OCC1CC(n2ccc3c(NC4CCc5ccccc54)ncnc32)CC1O` (configuration not stated) the viability, T/C was 79% and 92.2%.
`Nc1ccccc1NC(=O)c1ccc(CNC(=O)OCc2cccnc2)cc1` was tested, and the viability, T/C was 105% and 117%.
`Nc1ccn(C2OC(CO)C(O)C2(F)F)c(=O)n1` (configuration not stated) was tested, and the viability, T/C was 97.3% and 98.3%.
For `Nc1ncn(C2CC(O)C(CO)S2)c(=O)n1` (configuration not stated), the viability, T/C was 104% and 105%.
Work on `O=C(C=Cc1cccc(S(=O)(=O)Nc2ccccc2)c1)NO` yielded a viability, T/C of 114%.

Same assay, conditions: compound 0.01 µM; stronger effect = lower value
For `CC(C)CC(NC(=O)C(Cc1ccccc1)NC(=O)c1cnccn1)B(O)O` (configuration not stated), the viability, T/C was 0.18% and 0.38%.
In the case of `CC(C)CC(NC(=O)CNC(=O)c1cc(Cl)ccc1Cl)B1OC(=O)CC(CC(=O)O)(C(=O)O)O1` (configuration not stated), the viability, T/C is reported as 7.33% and 16.1%.
With `CC1COCCN1c1cc(-c2ccnn2C)c2ccnc(-c3ccn[nH]3)c2n1` (configuration not stated) the viability, T/C was 10.8% and 12.3%.
`CC[C@@]1(O)C(=O)OCc2c1cc1n(c2=O)Cc2cc3c(CN(C)C)c(O)ccc3nc2-1` was tested, and the viability, T/C was 14.3% and 24.3%.
In the case of `COc1cc(Nc2ncc3c(n2)-c2ccc(Cl)cc2C(c2c(F)cccc2OC)=NC3)ccc1C(=O)O`, the viability, T/C is reported as 56.3% and 81.6%.
For `Cn1ncnc1C1c2n[nH]c(=O)c3cc(F)cc(c23)NC1c1ccc(F)cc1` (configuration not stated), the viability, T/C was 96.3% and 103%.
In the case of `Nc1ncn(C2CC(O)C(CO)O2)c(=O)n1` (configuration not stated), the viability, T/C is reported as 103% and 102%.
